Data reported in publication PMC11758220, “Identification of a Privileged Scaffold for Inhibition of Sterol Transport Proteins through the Synthesis and Ring Distortion of Diverse, Pseudo-Natural Products” (ACS Central Science, 2025).

Biological target: T1, ORP2 (Homo sapiens, UniProt Q9H1P3)
T1 construct: ORP2(49-480); host or cells: E. coli BL21(DE3)
T1 sequence (Q9H1P3 49-480): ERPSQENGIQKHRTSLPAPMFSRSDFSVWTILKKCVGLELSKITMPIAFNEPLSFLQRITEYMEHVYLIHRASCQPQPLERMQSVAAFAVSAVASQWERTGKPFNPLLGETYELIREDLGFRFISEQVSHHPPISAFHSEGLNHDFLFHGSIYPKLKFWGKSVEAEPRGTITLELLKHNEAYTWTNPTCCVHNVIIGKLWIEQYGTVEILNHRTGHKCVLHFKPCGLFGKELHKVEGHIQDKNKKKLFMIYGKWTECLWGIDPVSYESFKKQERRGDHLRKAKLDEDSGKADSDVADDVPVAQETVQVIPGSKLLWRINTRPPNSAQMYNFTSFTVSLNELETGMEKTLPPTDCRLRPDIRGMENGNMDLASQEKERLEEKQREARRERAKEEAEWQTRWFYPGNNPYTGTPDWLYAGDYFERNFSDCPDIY
Experiment: Effect on intrinsic protein fluorescence, ORP2
Settings: protein 1 µM, excitation 280 nm
Procedure: Effect of spirooxepinoindoles on intrinsic protein fluorescence
Figure S12: Spirooxepinoindoles 21a and 15f affect intrinsic protein fluorescence in dose-dependent fashion:
Respective proteins (1 µM) were incubated with the compounds at different doses. Proteins were excited at 280 ± 10 nm and fluorescence spectra were measured from 315 ± 20 nm to 600 ± 20 nm with a step size of 2 nm. A) STARD1 and 21a. B) ORP1 and 21a. C) ORP2 and 21a. D) ORP2 and 15f.
(1 picture or pasted object on this page, not shown here)
Superdex 75 pg (Cytiva) using an ÄKTA Explorer (Cytiva) in buffer containing 10 mM Tris -HCl, pH 8, 150 mM NaCl, 5 % glycerol and 2 mM DTT.
Fluorescence intensity and polarisation
Fluorescence intensity and polarisation (FP) experiments were performed in a buffer containing 20 mM HEPES pH 7.5, 300 mM NaCl, 0.01 %v/v Tween-20, 0.5% glycerol and 2 mM DTT in a final volume of 30 µl in black, flat-bottom, non-binding 384-well plates (Corning). All compounds were dispensed using the LabCyte Echo 550 Liquid handler. […] For competition experiments, 20 nM 22-NBD-cholesterol or 80 nM 25-NBD-cholesterol was mixed with protein and incubated with desired concentrations of screening compounds (Table S4) The fluorescence polarisation signal was measured using a Spark Cyto multimode microplate reader (Tecan) with filters set at 485 ± 20 nm for excitation and at 535 ± 20 nm for emission. […]

Structure (SMILES) | Quenching of intrinsic fluorescence of ORP2
COc1ccc2c(c1)[C@@]13CC[C@@H]4C[C@@H](CC[C@@]41C)OC3=N2 [Compound 15f] | quenches the ORP2 protein fluorescence in a dose-dependent manner
C[C@]12CC[C@@H]3C[C@H]1CC[C@@]21C(=Nc2ccc(-c4ccccc4)cc21)O3 [Compound 21a] | dose-dependently quenches
